In ChEMBL document CHEMBL1671720, “Optimized Nile Red efflux assay of AcrAB-TolC multidrug efflux system shows competition between substrates” (Antimicrob Agents Chemother, 2010):
The source made the active and inactive calls. The calls are words filed in the database; no cut-off is given here. Residues, ends and D or L forms follow the SMILES beside them. *: point of attachment. βNA = c1ccc2cc(N*)ccc2c1

What was measured:
[1] = test system: Escherichia coli K-12; experiment: Inhibition of acrAB AcrAB-TolC in Escherichia coli K-12 3-AG100 overexpressing acrAB AcrAB-TolC assessed as [3H]TMG accumulation at 100 uM by scintillation counter method
[2] = test system: Escherichia coli K-12; experiment: Inhibition of acrAB AcrAB-TolC-mediated Nile Red efflux in marR mutant containing Escherichia coli K-12 3-AG102 overexpressing acrAB AcrAB-TolC assessed as time needed for 50% efflux after energization with 50 mM glucose at 1000 uM by spectrofluorometric assay
[3] = test system: Escherichia coli K-12; experiment: Inhibition of acrAB AcrAB-TolC-mediated Nile Red efflux in marR mutant containing Escherichia coli K-12 3-AG102 overexpressing acrAB AcrAB-TolC assessed as time needed for 50% efflux after energization with 50 mM glucose at 200 uM by spectrofluorometric assay
[4] = test system: Escherichia coli K-12; experiment: Inhibition of acrAB AcrAB-TolC in Escherichia coli K-12 3-AG100 overexpressing acrAB AcrAB-TolC assessed as [3H]TMG accumulation at 200 uM by scintillation counter method
[5] = test system: Escherichia coli K-12; experiment: Inhibition of acrAB AcrAB-TolC-mediated Nile Red efflux in Escherichia coli K-12 3-AG100 overexpressing acrAB AcrAB-TolC assessed as time needed for 50% efflux after energization with 50 mM glucose at 100 uM by spectrofluorometric assay
[6] = test system: Escherichia coli K-12; experiment: Inhibition of acrAB AcrAB-TolC-mediated Nile Red efflux in Escherichia coli K-12 3-AG100 overexpressing acrAB AcrAB-TolC assessed as time needed for 50% efflux after energization with 50 mM glucose by spectrofluorometric assay
[7] = test system: Escherichia coli K-12; experiment: Inhibition of acrAB AcrAB-TolC-mediated Nile Red efflux in Escherichia coli K-12 3-AG100 overexpressing acrAB AcrAB-TolC assessed as time needed for 50% efflux after energization with 50 mM glucose upto 2 mM by spectrofluorometric assay
[8] = test system: Escherichia coli K-12; experiment: Inhibition of acrAB AcrAB-TolC in Escherichia coli K-12 3-AG100 overexpressing acrAB AcrAB-TolC assessed as [3H]TMG accumulation at 800 uM by scintillation counter method
[9] = test system: Escherichia coli K-12; experiment: Inhibition of acrAB AcrAB-TolC-mediated Nile Red efflux in Escherichia coli K-12 3-AG100 overexpressing acrAB AcrAB-TolC assessed as time needed for 50% efflux after energization with 50 mM glucose at 800 uM by spectrofluorometric assay

Row | SMILES | TIME [2] [h] | TIME [3] [h] | inhibition [8] [%] | also measured
1 | COc1cccc2c1C(=O)c1c(O)c3c(c(O)c1C2=O)C[C@@](O)(C(=O)CO)C[C@@H]3O[C@H]1C[C@H](N)[C@H](O)[C@H](C)O1 | > 0.0556 | > 0.0556 | – | inhibition [1]: 78%
2 | N#CC(C#N)=NNc1cccc(Cl)c1 | – | – | – | inhibition [4]: 4.5%
3 | N=C(N)NCCC[C@H](NC(=O)[C@@H](N)Cc1ccccc1)C(=O)Nc1ccc2ccccc2c1 (H-Phe-Arg-βNA) | – | – | – | inhibition [1]: 60%; inhibition [5]: Active; inhibition [6]: Dose-dependent effect
4 | CC(=O)NC[C@H]1CN(c2ccc(N3CCOCC3)c(F)c2)C(=O)O1 | – | – | – | inhibition [7]: inactive
5 | CC[C@H]1OC(=O)[C@H](C)[C@@H](O[C@H]2C[C@@](C)(OC)[C@@H](O)[C@H](C)O2)[C@H](C)[C@@H](O[C@@H]2O[C@H](C)C[C@H](N(C)C)[C@H]2O)[C@](C)(O)C[C@@H](C)C(=O)[C@H](C)[C@@H](O)[C@]1(C)O | – | – | – | inhibition [7]: inactive
6 | CN(C)[C@@H]1C(O)=C(C(N)=O)C(=O)[C@@]2(O)C(O)=C3C(=O)c4c(O)cccc4[C@@](C)(O)[C@H]3C[C@@H]12 | > 0.0556 | 0.025 | 27 | –
7 | C[C@H]1c2cccc(O)c2C(=O)C2=C(O)[C@]3(O)C(=O)C(C(N)=O)=C(O)[C@@H](N(C)C)[C@@H]3[C@@H](O)[C@@H]21 | > 0.0556 | 0.0472 | 44 | –
8 | CN(C)c1ccc(O)c2c1C[C@H]1C[C@H]3[C@H](N(C)C)C(O)=C(C(N)=O)C(=O)[C@@]3(O)C(O)=C1C2=O | > 0.0556 | > 0.0556 | – | inhibition [4]: 45%
9 | c1ccc2c(CN3CCNCC3)cccc2c1 | > 0.0556 | 0.0278 | 53 | inhibition [9]: Active; inhibition [6]: Dose-dependent effect
10 | c1ccc([P+](c2ccccc2)(c2ccccc2)c2ccccc2)cc1 | > 0.0556 | 0.0292 | 97 | –
11 | CN(C)[C@@H]1C(O)=C(C(N)=O)C(=O)[C@@]2(O)C(O)=C3C(=O)c4c(O)ccc(Cl)c4[C@@](C)(O)[C@H]3C[C@@H]12 | > 0.0556 | 0.0556 | – | inhibition [4]: 14%
